From ChEMBL document CHEMBL1201862, “PubChem BioAssay data set” (2004)
Where “and” joins values, the source holds several entries; their conditions need not be identical. Equal values may be shown once.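 A five-concentration, 48-hour dose response in 96-well plates underlies each endpoint, interpolated linearly between surrounding concentrations. Abbreviation: GI50, concentration required for 50% inhibition of growth.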 Calls of active or inactive are those of the source. Cut-off read from the data, not from the text of the source: active = GI50 up to about 1.1 µM and inactive = higher.

Assays:
Assay in all cases: NCI tumour cell line growth inhibition, 48 h
LXFL 529 = test system: LXFL 529
HOP-18 = test system: HOP-18
DMS-114 = test system: DMS-114
RXF 631 = test system: RXF 631
SNB-78 = test system: SNB-78
DMS-273 = test system: DMS-273
M19-MEL = test system: M19-MEL
DLD-1 = test system: DLD-1
XF498 = test system: XF498

Structure (SMILES) | GI50 (LXFL 529) | GI50 (HOP-18) | GI50 (DMS-114) | GI50 (RXF 631) | GI50 (SNB-78) | GI50 (DMS-273) | GI50 (M19-MEL) | GI50 (DLD-1) | GI50 (XF498)
COc1cccc2c1C1=CC(=O)CCC1C(C)(C)O2 (stereo unspecified) | > 100 µM (inactive) | > 100 µM (inactive) | 27.8 µM (inactive) | > 100 µM (inactive) | > 100 µM (inactive) | > 100 µM (inactive) | > 100 µM (inactive) | 57.5 µM (inactive) | –
C[N+](C)(C)CCc1ccccc1 | > 100 µM (inactive) | – | > 100 µM (inactive) | > 100 µM (inactive) | > 100 µM (inactive) | > 100 µM (inactive) | > 100 µM (inactive) | > 100 µM (inactive) | > 100 µM (inactive)
O=C(CC(=O)n1nc(-c2ccccc2)c(/N=N/c2ccc([N+](=O)[O-])cc2)c1-c1ccccc1)Nc1ccc(Cl)cc1 | 8.73 µM (inactive) | 26.4 µM (inactive) | 5.92 µM (inactive) | 55.6 µM (inactive) | 88.5 µM (inactive) | 19.9 µM (inactive) | 35.6 µM (inactive) | 22 µM (inactive) | 26.2 µM (inactive)
O=C(Cc1ccc(F)cc1)NC1=C(Cl)C(=O)c2ccccc2C1=O | 2.8 µM (inactive) | – | 0.514 µM (active) | 7.36 µM (inactive) | 7.03 µM (inactive) | 3.63 µM (inactive) | 3.74 µM (inactive) | 2.18 µM (inactive) | 1.76 µM (inactive)
O=C1/C(=C/c2ccc(Cl)cc2)CCC1CNc1ccc(Cl)cc1 (stereo unspecified) | 0.711 µM (active) | 33.9 µM (inactive) | 3.94 µM (inactive) | – | 23.7 µM (inactive) | 1.73 µM (inactive) | 3.97 µM (inactive) | 1.68 µM (inactive) | 12.8 µM (inactive)
COC(=O)C1C=CCON2CCc3c(n(S(=O)(=O)c4ccccc4)c4ccccc34)C12 (stereo unspecified) | 73.8 µM (inactive) | 64.6 µM (inactive) | 41.2 µM (inactive) | – | > 100 µM (inactive) | 48.8 µM (inactive) | 40.6 µM (inactive) | 10.7 µM (inactive) | –
C(=C\c1c2oc(-c3ccccc3)cc(-c3ccccc3)c-2c2ccccc12)/C=C1\c2ccccc2-c2c(-c3ccccc3)cc(-c3ccccc3)[o+]c21.[O-][Cl+3]([O-])([O-])[O-] | > 100 µM (inactive) | – | > 100 µM (inactive) | – | > 100 µM (inactive) | > 100 µM (inactive) | > 100 µM (inactive) | > 100 µM (inactive) | > 100 µM (inactive)
Cc1c2cc[n+](C)cc2c(C)c2c1[nH]c1ccc(O)c(OCC(F)(F)F)c12 | 0.807 µM (active) | – | 0.938 µM (active) | 2.78 µM (inactive) | 1.16 µM (inactive) | 1.58 µM (inactive) | 2.42 µM (inactive) | 2.34 µM (inactive) | 1.2 µM (inactive)
C[N+](C)(C)CC(=O)N/N=C(/C(=O)Nc1ccc(Br)cc1)C1C(=O)NC(=O)NC1=O | > 100 µM (inactive) | > 100 µM (inactive) | > 100 µM (inactive) | > 100 µM (inactive) | > 100 µM (inactive) | > 100 µM (inactive) | > 100 µM (inactive) | > 100 µM (inactive) | –
COc1cccc2c1C(=O)C=CC2=O | 2.33 µM (inactive) | 10.4 µM (inactive) | 4.92 µM (inactive) | – | 4.54 µM (inactive) | 15 µM (inactive) | 4.45 µM (inactive) | 7.19 µM (inactive) | 2.52 µM (inactive)
CN(C)/N=N/c1ccccc1 | > 100 µM (inactive) | > 100 µM (inactive) | 31.6 µM (inactive) | – | – | > 100 µM (inactive) | 43.4 µM (inactive) | > 100 µM (inactive) | > 100 µM (inactive)
Cc1cc(C)c(-n2c(-c3ccccc3)cs/c2=N\N=C2C=C(C(C)(C)C)C(=O)C(C(C)(C)C)=C2)c(C)c1 | 75.5 µM (inactive) | > 100 µM (inactive) | 47.4 µM (inactive) | – | > 100 µM (inactive) | > 100 µM (inactive) | > 100 µM (inactive) | > 100 µM (inactive) | > 100 µM (inactive)
Cc1ccc(S(=O)(=O)c2ccc(C)cc2[N+](=O)[O-])cc1 | 44.3 µM (inactive) | > 100 µM (inactive) | 22.4 µM (inactive) | – | 64.4 µM (inactive) | > 100 µM (inactive) | 47.1 µM (inactive) | > 100 µM (inactive) | –
O=C(/C=C/c1ccc(Cl)c(Cl)c1)c1ccc2ccccc2c1 | > 100 µM (inactive) | > 100 µM (inactive) | > 100 µM (inactive) | > 100 µM (inactive) | > 100 µM (inactive) | > 100 µM (inactive) | > 100 µM (inactive) | > 100 µM (inactive) | –
CC[C@]1(O)C(=O)OCc2c1cc1n(c2=O)Cc2cc3c(N)cccc3nc2-1 | > 100 µM (inactive) | > 100 µM (inactive) | > 100 µM (inactive) | > 100 µM (inactive) | – | > 100 µM (inactive) | > 100 µM (inactive) | > 100 µM (inactive) | > 100 µM (inactive)
CCOC(=O)c1ccc(/N=C/c2ccc(N(CCC#N)S(=O)(=O)c3ccccc3)cc2C)cc1 | 6.01 µM (inactive) | – | 36 µM (inactive) | > 100 µM (inactive) | 33.2 µM (inactive) | 65.3 µM (inactive) | 36.6 µM (inactive) | 25.1 µM (inactive) | > 100 µM (inactive)
CC(C)N1CC2CC(CN(C(=O)c3ccc(Cl)cc3)C2)C1 | > 100 µM (inactive) | > 100 µM (inactive) | > 100 µM (inactive) | > 100 µM (inactive) | – | > 100 µM (inactive) | > 100 µM (inactive) | – | > 100 µM (inactive)
CCOC(=O)C(C(O)c1ccc([N+](=O)[O-])cc1)P(=O)(OCC)OCC (stereo unspecified) | > 100 µM (inactive) | > 100 µM (inactive) | – | > 100 µM (inactive) | – | > 100 µM (inactive) | 77.6 µM (inactive) | > 100 µM (inactive) | > 100 µM (inactive)
C=C/C=C(\NC(=O)C(Cl)(Cl)Cl)[Si](C)(C)C | > 100 µM (inactive) | > 100 µM (inactive) | > 100 µM (inactive) | – | > 100 µM (inactive) | > 100 µM (inactive) | > 100 µM (inactive) | > 100 µM (inactive) | > 100 µM (inactive)
CN(C)C(=S)SN(C)C(=O)Nc1ccccc1 | 0.391 µM (active) | – | 2.4 µM (inactive) | > 51.9 µM (inactive) | 39.9 µM (inactive) | 18.2 µM (inactive) | 2.21 µM (inactive) | 31.1 µM (inactive) | –
C=C1C(=O)OC2C1C(OC(=O)/C(=C/C)COC(C)=O)CC1(CO1)C1C(OC(=O)/C(=C/C)CO)C=C(C)C21 (stereo unspecified) | 0.427 µM (active) | 1.34 µM (inactive) | 1.85 µM (inactive) | – | 1.65 µM (inactive) | 1.73 µM (inactive) | 1.79 µM (inactive) | 1.34 µM (inactive) | 1.45 µM (inactive)
COc1ccc2c(c1)O[C@@H]1c3ccc(OC)cc3OC[C@H]21 | 28.8 µM (inactive) | – | 27.5 µM (inactive) | – | 33.8 µM (inactive) | 14.1 µM (inactive) | 31.4 µM (inactive) | 45.2 µM (inactive) | 25.6 µM (inactive)
O=c1oc2ccccc2[n+]([O-])c1-c1ccccc1 | > 100 µM (inactive) | > 100 µM (inactive) | > 100 µM (inactive) | > 100 µM (inactive) | > 100 µM (inactive) | > 100 µM (inactive) | > 100 µM (inactive) | > 100 µM (inactive) | > 100 µM (inactive)
Cc1cc(C)c(C(=O)C(C)C(c2ccccc2)c2ccc(Cl)cc2)c(C)c1 (stereo unspecified) | 63.5 µM (inactive) | > 100 µM (inactive) | > 100 µM (inactive) and 76.7 µM (inactive) | > 100 µM (inactive) and 95.1 µM (inactive) | – | – | 43.9 µM (inactive) and 33.3 µM (inactive) | > 100 µM (inactive) | 61.2 µM (inactive) and 33.3 µM (inactive)
CN(CCN1C(=O)c2cc([N+](=O)[O-])cc3cc([N+](=O)[O-])cc(c23)C1=O)CCN1C(=O)c2cc([N+](=O)[O-])cc3cc([N+](=O)[O-])cc(c23)C1=O | 0.211 µM (active) | 10.6 µM (inactive) | 0.605 µM (active) | – | 0.255 µM (active) | 0.391 µM (active) | 0.369 µM (active) | 0.448 µM (active) | 0.211 µM (active)
COc1cc2c(cc1C)[n+]([O-])c(C)c(C(=O)C/C(=N/NC(=O)C[N+](C)(C)C)C(=O)Nc1cccc(Cl)c1C)[n+]2[O-] | > 100 µM (inactive) | > 100 µM (inactive) | > 100 µM (inactive) | > 100 µM (inactive) | > 100 µM (inactive) | > 100 µM (inactive) | – | > 100 µM (inactive) | > 100 µM (inactive)
